Earlier results on 1 sequence are cited in PMC11704089, “A Novel Cell-Penetrating Peptide–Vascular Endothelial Growth Factor Small Interfering Ribonucleic Acid Complex That Mediates the Inhibition of Angiogenesis by Human Umbilical Vein Endothelial Cells and in an Ex Vivo Mouse Aorta Ring Model” (Biomaterials Research, 2025).

The series relates to various cell lines.

Take RNQRKTVRCFRCRQAGHWISDCRLKSK [Ara27]: the Cytotoxicity result was “without evidence of cytotoxicity”; the “Intracellular uptake compared to Tat-protein transduction domain and membrane translocating sequence” value was “significant improvement in intracellular uptake”. Under “low concentrations and short treatment conditions, various cell lines”, the Cellular internalization result was “efficiently internalized”.
